# Experimental data taken from US8039501B2, “Synephrine derivatives useful as anti-inflammatory agents” (Universiteit Gent, priority 2005, dated 2011).
# Tests used:
# [1] = molecular target: T1, glucocorticoid receptor (GR) (Homo sapiens, UniProt P04150); test: Western blot of homologous down-regulation of GR in FLS; type: cell-based; settings: 10 μM, 3, 6, 9 or 24 hours, FIG. 22A
# T1 construct: endogenous in cells; host or cells: primary fibroblast-like synoviocytes from RA patients
# T1 sequence (P04150 1-777): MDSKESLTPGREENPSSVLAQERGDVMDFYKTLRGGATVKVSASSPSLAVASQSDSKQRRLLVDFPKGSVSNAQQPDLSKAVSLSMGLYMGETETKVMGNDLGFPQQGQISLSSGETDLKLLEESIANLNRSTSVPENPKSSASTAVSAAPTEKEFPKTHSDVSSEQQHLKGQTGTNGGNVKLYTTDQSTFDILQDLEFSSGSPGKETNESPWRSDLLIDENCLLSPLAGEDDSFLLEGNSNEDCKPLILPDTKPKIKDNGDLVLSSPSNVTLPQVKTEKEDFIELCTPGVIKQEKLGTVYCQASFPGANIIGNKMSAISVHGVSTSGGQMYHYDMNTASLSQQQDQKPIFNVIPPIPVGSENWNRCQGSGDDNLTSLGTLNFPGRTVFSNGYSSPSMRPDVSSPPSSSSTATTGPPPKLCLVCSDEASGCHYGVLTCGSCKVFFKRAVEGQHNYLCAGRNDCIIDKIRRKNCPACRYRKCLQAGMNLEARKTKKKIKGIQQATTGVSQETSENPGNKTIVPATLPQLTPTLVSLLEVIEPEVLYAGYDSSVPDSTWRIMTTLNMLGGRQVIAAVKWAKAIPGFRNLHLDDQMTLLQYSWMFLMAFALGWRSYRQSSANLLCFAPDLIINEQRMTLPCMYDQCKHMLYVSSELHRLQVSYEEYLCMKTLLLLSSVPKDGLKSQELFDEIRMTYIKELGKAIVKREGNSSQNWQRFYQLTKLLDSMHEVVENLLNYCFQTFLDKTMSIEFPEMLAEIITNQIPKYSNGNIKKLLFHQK
# Protocol: (§1) CpdA was synthesized as described previously. […] They were sacrificed and livers were isolated. […] Gene expression of HPRT was used for normalization. […] Gene expression of HPRT was used for normalization. […] Gene expression of HPRT was used for normalization. Statistical significance was determined by one way anova. […] Gene expression of HPRT was used for normalization. […] Gene expression of HPRT was used for normalization. Statistical significance was determined by one way anova. […] Statistical significance was determined with a Kruskal-Wallis test.
# Western blot analysis was performed on total protein extracts with an anti-GR(H-300) antibody. The detection of ERK was used as a loading control. After 8 days of treatment liver samples were taken from the PBS, DEX (20 μg) or CpdA (300 μg) treated DBA/1 mice (FIG. 22B). Q-PCR was performed for the detection of GR in the different samples. Statistical significance was determined with a Mann-Whitney Test. FLS were pre-treated with solvent, DEX (1 μM) or CpdA (10 μM) for 1 hour (set-up 1) or 24 hours (set-up 2), as indicated in the figures. Afterwards, TNF (2000 units/ml) was added for 6 h. Western blot analysis was performed on total extracts with an anti-GR(H-300) antibody (FIG. 19A). Detection of ERK was used as a loading control. […] Statistical significance was determined by one way anova. […]
# [2] = test system: FLS cells (fibroblast-like synoviocytes); test: Q-PCR/ELISA gene expression in primary FLS of RA patients; type: cell-based, human
# Protocol: as §1
# Western blot analysis was performed on total protein extracts with an anti-GR(H-300) antibody. The detection of ERK was used as a loading control. After 8 days of treatment liver samples were taken from the PBS, DEX (20 μg) or CpdA (300 μg) treated DBA/1 mice (FIG. 22B). Q-PCR was performed for the detection of GR in the different samples. Statistical significance was determined with a Mann-Whitney Test. FLS were pre-treated with solvent, DEX (1 μM) or CpdA (10 μM) for 1 hour (set-up 1) or 24 hours (set-up 2), as indicated in the figures. Afterwards, TNF (2000 units/ml) was added for 6 h. Western blot analysis was performed on total extracts with an anti-GR(H-300) antibody (FIG. 19A). Detection of ERK was used as a loading control. The Human Inflammation Array was incubated with medium of cultured FLS and developed following the manufacturer's instruction (FIG. 19B). Total RNA was isolated from the induced FLS and subjected to reverse transcriptase PCR. […] Gene expression of HPRT was used for normalization. Statistical significance was determined by one way anova. […] Since it has been proposed that the cellular sensitivity to GC is directly proportional to the receptor concentration, the mechanism of homologous down-regulation appears to drastically affect the cellular sensitivity of primary human RA-FLS to GC therapy. […] Such an effect can not be observed with CpdA. […] Therefore, it is not surprising that some patients who develop resistance to the therapeutic effects of GC, still display the unwanted effects associated with prolonged GC treatment. […] All publications and patent applications mentioned in this specification are herein incorporated by reference to the same extent as if each independent publication or patent application was specifically and individually indicated to be incorporated by reference. Other embodiments are within the scope of the claims.
# [3] = test system: AP1; test: EMSA of AP1 DNA binding in MCF7 cells; type: cell-based, human; settings: FIG. 7B
# Protocol: For the EMSA, the MCF7 cells were pre-treated with varying concentrations of CpdA (10, 1, 0.1, 0.01, and 0.001 μM) and DEX (0.1 μM) for two hours and subsequently TNF-induced or non-TNF-induced during 30 min at 2000 IU/ml. After the induction period, nuclear extracts were examined in EMSA assays. Cells were washed with ice-cold PBS, scraped off, and pelleted in 15 ml of PBS by centrifugation for 5 min at 2600 rpm at 4° C. and lysed for 30 minutes at 4° C. in Totex buffer (20 mM HEPES (pH 7.9), 350 mM NaCl, 1 mM MgCl, 0.5 mM EDTA, 0.1 mM EGTA, 5 mM DTT, 20% glycerol, 1% NP-40, 0.1% PMSF, 1% aprotinin (4 mg/ml leupeptin). Supernatants from a 4000-rpm 10-min centrifugation were collected, aliquoted and stored at −20° C. until further use. Radiolabelled oligonucleotides that correspond to a consensus κB DNA-binding element of the IL-6 promoter, and of activating protein 1 (AP-1) DNA target-were used for appropriate EMSA's. These oligonucleotides of about 25 nucleotides comprise centrally the transcription factor binding motif. […] The samples were analyzed by electrophoresis on 6% native polyacrylamide gels. […] Visualization and quantitation of radioactive signals was carried out by a Phosphorlmager and scanned using a bioimaging analyzer (Personal Molecular Imager® FX Bio-Rad). […]
smiles,measurement,setting,value
"CNCC(Cl)c1ccc(OC(C)=O)cc1.Cl (stereo not drawn) [CpdA, 2-(4-acetoxyphenyl)-2-chloro-N-methyl-ethylammonium chloride]",Ligand-induced down-regulation of the glucocorticoid receptor (GR),[1],does not evoke a ligand-induced down-regulation of the glucocorticoid receptor (GR)
same,"Repression of TNF-induced MCP-1, IL-8 and IL-6 after prolonged treatment (set-up 2)","[2]; 10 μM pre-treated 24 hours, TNF 2000 units/ml 6 h, FIG. 19","still able to repress the TNF-induced expression of MCP-1, IL-8 and IL-6"
same,RANKL/OPG ratio,"[2]; 10 μM, 24 hours",does not alter the RANKL/OPG ratio
same,Expression of cathepsin K,"[2]; 10 μM, 24 hours, FIG. 18",does not stimulate the expression of cathepsin K
same,Expression of osteoclast differentiation markers M-CSF and RANKL,"[2]; 10 μM, 24 hours, FIG. 18, RANKL solvent versus CpdA p>0.05",does not stimulate the expression
same,Expression of OPG,"[2]; 10 μM, 24 hours, FIG. 18, solvent versus CpdA p>0.05",does not down-regulate the expression of OPG
same,Transactivation function of GR (GRE-driven PCOLCE2 and GS expression),"[2]; 10 μM, FIG. 20",does not evoke the transactivation function of GR
same,Expression of pro-inflammatory mediators (anti-inflammatory effect),"[2]; 10 μM, TNF 2000 U/ml 6 hours, FIG. 17",anti-inflammatory effect
same,DNA-binding of transcription factor AP1 (EMSA),[3],not affected
